The source of these data is patent US12089597B2, “Active ingredient combinations with insecticidal, nematicidal and acaricidal properties” (BAYER AKTIENGESELLSCHAFT, priority 2018, dated 2024).

Assay [1] relates to Meloidogyne incognita. In words: Example A: Meloidogyne incognita test (gall formation on lettuce roots in sand). Particulars: nematicidal action by gall formation, 100% = no galls. It counts as in vivo. An excerpt:
(§1) • The expected activity for a given combination of two active ingredients can be calculated as follows, according to S. R. Colby (“Calculating Synergistic and Antagonistic Responses of Herbicide Combinations”, Weeds 15, 20-22, 1967): • If • X is the kill rate, expressed as % of the untreated control, when using active ingredient A at an application rate of m g/ha or in a concentration of m ppm, • Y is the kill rate, expressed as % of the untreated control, when using active ingredient B at an application rate of n g/ha or in a concentration of n ppm and • E is the kill rate, expressed as % of the untreated control, when using active ingredients A and B at application rates of m and n g/ha or in a concentration of m and n ppm, • then
(§2) [formula] • If the actual kill rate is greater than the calculated kill rate (E), the action of the combination is superadditive, i.e. a synergistic effect is present.
(§3) Meloidogyne incognita Test
(§4) • Solvent: 125.0 parts by weight of acetone
(§5) To produce an appropriate active ingredient formulation, 1 part by weight of active ingredient is mixed with the stated amount of solvent and the concentrate is diluted to the desired concentration with water.
(§6) Vessels are filled with sand, active ingredient solution, an egg/larvae suspension of the southern root-knot nematode (Meloidogyne incognita) and lettuce seeds. The lettuce seeds germinate and the plants develop. The galls develop on the roots.
(§7) After the desired period of time, the nematicidal action is determined in % by the gall formation. 100% means that no galls were found; 0% means that the number of galls on the treated plants corresponds to the untreated control. The values ascertained are entered into Colby's formula.

Assay [2] concerns Meloidogyne incognita. Briefly: Example B: Meloidogyne incognita test (gall formation on lettuce roots in sand). Type of assay: in vivo. The conditions noted are these: nematicidal action by gall formation, 100% = no galls.
Description: as §1, §2, §3, §4, §5, §6, §7

With `Cc1cc(Cl)cc(C)c1C1=C(O)C2(CCC3(CC2)OCCO3)NC1=O` [Compound (I-2)], the “Effect in % after 14 days” value in the assay on Meloidogyne incognita [1] (1.2 ppm), with Meloidogyne incognita [1] (2.4 ppm), in the assay on Meloidogyne incognita [1] (4.8 ppm), in the assay with Meloidogyne incognita [2] (0.4 ppm), in the assay on Meloidogyne incognita [2] (0.8 ppm) and with Meloidogyne incognita [2] (1.6 ppm) was 0% in each case.
Consider `O=C(Nc1ccn(-c2c(F)cccc2F)n1)c1ccccc1C(F)(F)F` [Compound (B-1)], for which the “Effect in % after 14 days” value in the assay on Meloidogyne incognita [1] (3 ppm) is 0%; with Meloidogyne incognita [1] (6 ppm), 0%; in the assay on Meloidogyne incognita [1] (12 ppm), 70%.
As to `c1ccc(-c2noc(-c3cccs3)n2)cc1` [Tioxazafen (B-2), Tioxazafen], the “Effect in % after 14 days” value with Meloidogyne incognita [2] (1.6 ppm) was 0%; in the assay on Meloidogyne incognita [2] (3.2 ppm) it was 0%; in the assay on Meloidogyne incognita [2] (6.4 ppm), 70%.
